The values below are quoted from earlier work in patent US20070065414A1, “Enhanced delivery of cells” (Boston Scientific Scimed, Inc., priority 2005, published 2007).

The conditions of this data set: general statement, no experiment described.

With `Nc1ncnc2c1ncn2[C@@H]1O[C@H](CO)[C@@H](O)[C@H]1O` [Adenosine, adenosine], the blood pool half-life result is recorded as “only a few seconds”.
